Where two headings read alike, the source gives them in different places.
Legend:
Ba/F3 SLC34A2-ROS1-WT = test: Cell proliferation inhibition (CellTiter-Glo, 72 h); format: cell-based; conditions: Mus musculus, BaF3, read-out: Half Inhibitory Concentrations of Cells IC50, Ba/F3 SLC34A2-ROS1-WT
Ros-G2032R = target: T1, Ros-G2032R (Homo sapiens, UniProt P08922, G2032R); test: Kinase inhibitory activity (33P-ATP filtration-binding, Reaction Biology Corp.); format: biochemical; conditions: read-out: Half Inhibitory Concentrations of Kinases IC50, Ros-G2032R
T1 construct: purchased Reaction Biology Corp
Procedure: (§1) The resulting mixture was incubated at room temperature for 20 minutes, and a certain concentration of 33P-ATP was added to the reaction mixture to initiate the reaction, followed by incubation at room temperature for 120 minutes. Finally, the radioactivity of the reactants was detected by a filtration-binding method. The final kinase activity was expressed by the ratio of the remaining kinase activity in the test sample to the kinase activity of the DMSO control group. The dose-effect curve was fitted by GraphPad software and the IC50 values were calculated.

TrkA = target: T2, TrkA (Homo sapiens, UniProt P04629); test: as above; format: biochemical; conditions: read-out: Half Inhibitory Concentrations of Kinases IC50, TrkA
T2 construct: purchased Reaction Biology Corp
Procedure: as §1

TrkA-G667C = target: T3, TrkA-G667C (Homo sapiens, UniProt P04629, G667C); test: as above; format: biochemical; conditions: read-out: Half Inhibitory Concentrations of Kinases IC50, TrkA-G667C
T3 construct: purchased Reaction Biology Corp
Procedure: as §1

TrkA-G595R = target: T4, TrkA-G595R (Homo sapiens, UniProt P04629, G595R); test: as above; format: biochemical; conditions: read-out: Half Inhibitory Concentrations of Kinases IC50, TrkA-G595R
T4 construct: purchased Reaction Biology Corp
Procedure: as §1

TrkC = target: T5, TrkC (Homo sapiens, UniProt Q16288); test: as above; format: biochemical; conditions: read-out: Half Inhibitory Concentrations of Kinases IC50, TrkC
T5 construct: purchased Reaction Biology Corp
Procedure: as §1

Ros1 = target: T6, Ros1 (Homo sapiens, UniProt P08922); test: as above; format: biochemical; conditions: read-out: Half Inhibitory Concentrations of Kinases IC50, Ros1
T6 construct: purchased Reaction Biology Corp
Procedure: as §1

[1] = Cassette pharmacokinetic test in mice (plasma, brain, CSF); format: in vivo, male CD-1 mice; conditions: cassette; for AUC(0-inf): read-out: Area under Curve AUC0-inf
Procedure: The pharmacokinetic behaviors of the compounds of the present invention in mice were studied and the pharmacokinetic properties thereof were evaluated.

[2] = tested on: human colon cancer cell line KM12 cells subcutaneous xenograft tumor; test: Efficacy test in mice, KM12 subcutaneous xenograft; format: in vivo, BALB/c mouse; conditions: PO
Procedure: The in vivo efficacy of test drugs such as the compound of Formula (I) on human colon cancer cell line KM12 cells subcutaneous xenograft tumor in a BALB/c mouse model was evaluated.
(§2) The compounds were prepared into clear solutions using 5% DMSO+10% solutol+85% water as a solvent for administration in PO (gavage) groups.
The tumor diameter was measured twice a week using a vernier caliper. The formula for calculating the tumor volume is: V=0.5×a×b^2, wherein a and b represent the long diameter and the short diameter of the tumor, respectively. The antitumor efficacy of the compounds was evaluated with TGI (%), which reflects the inhibition rate of tumor growth.
(§3) Statistical analysis was performed using SPSS software based on relative tumor volume and tumor weight at the end of the experiment. Comparisons among multiple groups were analyzed by one-way ANOVA. If the variances were homogeneous (no significant difference in F-values), the analysis was performed by the Tukey's method, and if the variances were not homogeneous (significant difference in F-values), the test was performed by the Games-Howell method. P<0.05 was considered as a significant difference.

[3] = Pharmacokinetic test in mice; format: in vivo; conditions: male CD-1 mice; for AUC(0-t): read-out: Area under Curve AUC0-last
Procedure: The drug concentrations of the compounds in plasma at different time points were determined by LC/MS/MS method after single intravenous (IV) and intragastric (PO) administration of the compounds to 7-9 week old male CD-1 mice as the test animals. The pharmacokinetic behaviors of the compounds of the present invention in mice were studied and pharmacokinetic properties thereof were evaluated.
The compounds were prepared into clear solutions using 5% DMSO+10% solutol+85% water as a solvent for administration in IV (intravenous injection) and PO (gavage) groups. The administration dosage of each compound was 3 mg/kg for the IV group and […] for the PO group.

Ba/F3 LMNA-NTRK1-F589L = test: Cell proliferation inhibition (CellTiter-Glo, 72 h); format: cell-based; conditions: Mus musculus, BaF3, read-out: Half Inhibitory Concentrations of Cells IC50, Ba/F3 LMNA-NTRK1-F589L
[4] = tested on: human lung cancer LU-01-0414 subcutaneous xenograft tumor; test: Efficacy test in mice, LU-01-0414 subcutaneous xenograft; format: in vivo, BALB/c mouse; conditions: PO, 14 days, LU-01-0414 xenograft
Procedure: The in vivo efficacy of test drugs such as the compound of Formula (I) on human lung cancer LU-01-0414 subcutaneous xenograft tumor in a BALB/c mouse model was evaluated.
as §2
The tumor diameters were measured twice a week using a vernier caliper. The formula for calculating the tumor volume is: V=0.5×a×b^2, wherein a and b represent the long diameter and the short diameter of the tumor, respectively. The antitumor efficacy of the compounds was evaluated with TGI (%), which reflects the inhibition rate of tumor growth.
as §3

BaF3 ETV6-NTRK3-G623R = test: Cell proliferation inhibition (CellTiter-Glo, 72 h); format: cell-based; conditions: Mus musculus, read-out: Half Inhibitory Concentrations of Cells IC50, BaF3 ETV6-NTRK3-G623R
[5] = tested on: Ba/F3 SLC34A2-ROS1-G2032R; test: as above; format: cell-based; conditions: Mus musculus, BaF3, read-out: Half Inhibitory Concentrations of Cells IC50, Ba/F3 SLC34A2-ROS1-G2032R

T1 sequence (P08922 28-2347 G2032R): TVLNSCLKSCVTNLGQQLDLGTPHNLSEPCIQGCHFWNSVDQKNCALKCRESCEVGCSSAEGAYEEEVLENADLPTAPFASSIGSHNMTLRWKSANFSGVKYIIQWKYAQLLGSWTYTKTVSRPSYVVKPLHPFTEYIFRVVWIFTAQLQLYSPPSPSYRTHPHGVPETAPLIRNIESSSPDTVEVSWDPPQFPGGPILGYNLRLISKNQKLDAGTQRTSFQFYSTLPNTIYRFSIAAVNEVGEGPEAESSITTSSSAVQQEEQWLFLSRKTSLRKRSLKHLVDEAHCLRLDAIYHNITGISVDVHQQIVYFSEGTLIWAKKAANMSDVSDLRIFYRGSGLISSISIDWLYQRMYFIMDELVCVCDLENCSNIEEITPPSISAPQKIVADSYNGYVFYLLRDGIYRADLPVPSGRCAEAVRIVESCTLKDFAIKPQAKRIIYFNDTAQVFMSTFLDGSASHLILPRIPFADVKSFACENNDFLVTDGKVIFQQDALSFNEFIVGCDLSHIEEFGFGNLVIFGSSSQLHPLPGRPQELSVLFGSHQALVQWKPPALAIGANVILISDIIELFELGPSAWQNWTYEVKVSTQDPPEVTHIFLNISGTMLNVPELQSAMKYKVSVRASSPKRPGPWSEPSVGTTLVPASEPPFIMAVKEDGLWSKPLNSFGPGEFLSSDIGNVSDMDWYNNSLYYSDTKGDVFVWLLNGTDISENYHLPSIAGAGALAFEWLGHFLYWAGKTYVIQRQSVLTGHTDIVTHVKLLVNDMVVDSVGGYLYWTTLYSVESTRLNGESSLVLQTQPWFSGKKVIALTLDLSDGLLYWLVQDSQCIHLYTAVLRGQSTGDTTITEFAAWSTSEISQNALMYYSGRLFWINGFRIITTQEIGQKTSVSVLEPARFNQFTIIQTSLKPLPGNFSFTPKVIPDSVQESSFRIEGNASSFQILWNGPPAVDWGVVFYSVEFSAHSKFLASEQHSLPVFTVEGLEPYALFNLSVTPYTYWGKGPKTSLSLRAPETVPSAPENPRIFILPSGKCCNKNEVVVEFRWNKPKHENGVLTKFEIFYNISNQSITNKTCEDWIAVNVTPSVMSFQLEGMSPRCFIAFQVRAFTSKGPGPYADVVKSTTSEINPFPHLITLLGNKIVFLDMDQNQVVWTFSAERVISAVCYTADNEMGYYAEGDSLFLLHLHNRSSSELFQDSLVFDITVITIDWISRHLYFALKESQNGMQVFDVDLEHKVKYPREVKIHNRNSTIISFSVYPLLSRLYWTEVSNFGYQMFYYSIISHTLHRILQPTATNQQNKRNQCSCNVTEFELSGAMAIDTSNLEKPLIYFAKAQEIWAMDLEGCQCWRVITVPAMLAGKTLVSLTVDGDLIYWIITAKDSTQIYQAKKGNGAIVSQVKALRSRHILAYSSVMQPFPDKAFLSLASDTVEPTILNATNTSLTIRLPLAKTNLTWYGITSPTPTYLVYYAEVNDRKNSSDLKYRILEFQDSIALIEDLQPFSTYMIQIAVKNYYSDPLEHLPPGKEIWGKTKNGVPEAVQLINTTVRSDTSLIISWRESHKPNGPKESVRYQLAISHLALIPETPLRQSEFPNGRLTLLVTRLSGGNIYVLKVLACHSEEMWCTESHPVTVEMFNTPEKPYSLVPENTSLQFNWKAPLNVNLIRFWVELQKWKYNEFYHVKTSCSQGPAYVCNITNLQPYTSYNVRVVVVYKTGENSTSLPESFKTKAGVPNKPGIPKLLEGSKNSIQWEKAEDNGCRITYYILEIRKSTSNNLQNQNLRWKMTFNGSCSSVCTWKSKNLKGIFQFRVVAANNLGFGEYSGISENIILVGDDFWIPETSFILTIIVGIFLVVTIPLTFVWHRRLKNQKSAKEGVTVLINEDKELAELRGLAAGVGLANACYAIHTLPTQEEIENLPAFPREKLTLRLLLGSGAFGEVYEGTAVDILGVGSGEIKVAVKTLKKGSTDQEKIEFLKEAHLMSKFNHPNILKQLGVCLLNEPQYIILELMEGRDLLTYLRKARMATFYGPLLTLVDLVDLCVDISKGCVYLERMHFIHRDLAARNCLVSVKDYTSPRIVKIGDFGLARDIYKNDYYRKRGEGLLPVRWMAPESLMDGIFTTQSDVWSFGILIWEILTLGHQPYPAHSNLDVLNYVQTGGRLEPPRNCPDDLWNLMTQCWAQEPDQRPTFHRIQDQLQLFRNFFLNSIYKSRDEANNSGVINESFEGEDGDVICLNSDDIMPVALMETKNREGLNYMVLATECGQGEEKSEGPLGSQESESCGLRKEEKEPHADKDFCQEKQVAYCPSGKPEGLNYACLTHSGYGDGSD
T4 sequence (P04629 33-796 G595R): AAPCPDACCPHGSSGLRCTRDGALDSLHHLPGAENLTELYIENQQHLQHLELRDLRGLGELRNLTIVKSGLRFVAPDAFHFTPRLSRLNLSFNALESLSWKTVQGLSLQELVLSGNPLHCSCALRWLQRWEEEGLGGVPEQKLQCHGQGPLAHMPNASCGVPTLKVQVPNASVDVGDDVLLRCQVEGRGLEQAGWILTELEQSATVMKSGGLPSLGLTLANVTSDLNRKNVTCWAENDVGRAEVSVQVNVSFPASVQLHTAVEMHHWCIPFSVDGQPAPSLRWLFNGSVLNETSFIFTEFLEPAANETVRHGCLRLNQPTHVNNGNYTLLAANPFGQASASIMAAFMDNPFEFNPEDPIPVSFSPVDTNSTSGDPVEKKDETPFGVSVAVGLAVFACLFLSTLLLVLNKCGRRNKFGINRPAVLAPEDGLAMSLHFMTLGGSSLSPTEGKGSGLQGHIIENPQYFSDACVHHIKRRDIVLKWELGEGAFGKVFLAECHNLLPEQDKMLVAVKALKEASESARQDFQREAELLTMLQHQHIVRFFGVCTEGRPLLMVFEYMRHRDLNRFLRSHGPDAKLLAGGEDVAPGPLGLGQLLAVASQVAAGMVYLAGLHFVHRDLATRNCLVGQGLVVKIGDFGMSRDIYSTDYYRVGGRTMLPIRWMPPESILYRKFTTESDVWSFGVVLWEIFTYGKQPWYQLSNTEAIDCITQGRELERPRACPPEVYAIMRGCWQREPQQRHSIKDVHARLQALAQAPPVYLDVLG
T5 sequence (Q16288 32-839): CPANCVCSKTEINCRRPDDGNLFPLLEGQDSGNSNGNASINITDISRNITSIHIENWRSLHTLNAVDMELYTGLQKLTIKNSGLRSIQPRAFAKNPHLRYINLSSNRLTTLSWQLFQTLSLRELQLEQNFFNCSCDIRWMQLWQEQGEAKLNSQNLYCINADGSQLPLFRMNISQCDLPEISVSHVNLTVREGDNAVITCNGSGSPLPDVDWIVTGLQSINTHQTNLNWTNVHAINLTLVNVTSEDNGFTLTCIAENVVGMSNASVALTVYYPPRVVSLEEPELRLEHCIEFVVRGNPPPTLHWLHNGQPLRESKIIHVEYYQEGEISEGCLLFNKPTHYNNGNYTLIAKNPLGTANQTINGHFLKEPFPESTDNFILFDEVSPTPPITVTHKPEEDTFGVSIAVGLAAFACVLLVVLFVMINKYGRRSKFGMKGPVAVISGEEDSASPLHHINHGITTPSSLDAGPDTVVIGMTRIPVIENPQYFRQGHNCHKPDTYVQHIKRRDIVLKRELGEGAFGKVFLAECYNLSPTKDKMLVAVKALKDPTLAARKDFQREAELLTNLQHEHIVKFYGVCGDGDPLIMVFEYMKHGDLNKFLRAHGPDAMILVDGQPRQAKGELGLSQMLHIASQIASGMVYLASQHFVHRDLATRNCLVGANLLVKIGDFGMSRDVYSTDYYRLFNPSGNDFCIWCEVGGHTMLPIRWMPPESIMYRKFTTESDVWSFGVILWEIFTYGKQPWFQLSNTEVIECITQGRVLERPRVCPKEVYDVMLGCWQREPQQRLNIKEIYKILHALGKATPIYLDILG
T2 sequence (P04629 33-796): as the sequence (P04629 33-796 G595R) above, with R563G counted along it
T3 sequence (P04629 33-796 G667C): as the sequence (P04629 33-796 G595R) above, with R563G, G635C counted along it
T6 sequence (P08922 28-2347): as the sequence (P08922 28-2347 G2032R) above, with R2005G counted along it

O=C1NC2(CC2)COc2ncc(F)cc2[C@H]2CCON2c2ccn3ncc1c3n2 [Compound of Formula (I)]
IC50 (Ba/F3 SLC34A2-ROS1-WT): 2.53 nM | IC50 (Ros-G2032R): 0.4 nM | IC50 (TrkA): 2.07 nM | IC50 (TrkA-G667C): 7 nM | IC50 (TrkA-G595R): 3.6 nM | IC50 (TrkC): 0.14 nM | IC50 (Ros1): 0.14 nM | Apparent Clearance Cl ([1]; IV @ 1 mpk, male CD-1 mice): 6.3 mL/min/kg | Drug Concentration in Cerebrospinal Fluid at 0.5 h ([1]; PO @ 3 mpk, CSF, 0.5 h): 63 nmol/kg | Drug Concentration in Cerebrospinal Fluid at 2 h ([1]; PO @ 3 mpk, CSF, 2 h): 21 nmol/kg | Drug Concentration in Brain at 0.5 h ([1]; PO @ 3 mpk, brain, 0.5 h): 663 nmol/kg | Drug Concentration in Brain at 2 h ([1]; PO @ 3 mpk, brain, 2 h): 343 nmol/kg | Vd ([1]; mouse, plasma, 1 mg/kg, IV @ 1 mpk, male CD-1 mice, read-out: Apparent Distribution Volume Vd): 0.57 L/kg | AUC(0-inf) ([1]; mouse, plasma, 1 mg/kg, IV @ 1 mpk, male CD-1 mice): 6.69 µM·h | half-life ([1]; mouse, plasma, 1 mg/kg, IV @ 1 mpk, male CD-1 mice, read-out: Half-life T1/2 (converted)): 52.8 min | C0 ([1]; mouse, plasma, 1 mg/kg, IV @ 1 mpk, male CD-1 mice, read-out: Initial Concentration C0): 3.71 µM | bioavailability ([1]; mouse, plasma, 3 mg/kg, PO @ 3 mpk vs IV @ 1 mpk, male CD-1 mice, read-out: Bioavailability F %): 76% | AUC(0-inf) ([1]; mouse, plasma, 3 mg/kg, PO @ 3 mpk, male CD-1 mice): 19.8 µM·h | Cmax ([1]; mouse, plasma, 3 mg/kg, PO @ 3 mpk, male CD-1 mice, read-out: Peak Concentration Cmax): 4.74 µM | Tmax ([1]; mouse, plasma, 3 mg/kg, PO @ 3 mpk, male CD-1 mice, read-out: Time to Peak Tmax): 15 min | T/C ([2]; 3 mg/kg): 33.18% | TGI ([2]; 3 mg/kg): 71.23% | T/C ([2]; 15 mg/kg): 15.63% | TGI ([2]; 15 mg/kg): 88.61% | Apparent Clearance Cl ([3]; IV, 3 mg/kg): 7.2 mL/min/kg | Vd ([3]; mouse, plasma, IV, 3 mg/kg, read-out: Apparent Distribution Volume Vd): 0.49 L/kg | AUC(0-t) ([3]; mouse, plasma, IV, 3 mg/kg): 17.5 µM·h | half-life ([3]; mouse, plasma, IV, 3 mg/kg, read-out: Half-life T1/2 (converted)): 45 min | bioavailability ([3]; mouse, plasma, PO (10 mL/kg [sic]) vs IV 3 mg/kg, read-out: Bioavailability F %): 51% | AUC(0-t) ([3]; mouse, plasma, PO, dosage given as 10 mL/kg): 29.8 µM·h | Cmax ([3]; mouse, plasma, PO, dosage given as 10 mL/kg, read-out: Peak Concentration Cmax): 9.14 µM | Tmax ([3]; mouse, plasma, PO, dosage given as 10 mL/kg, read-out: Time to Peak Tmax): 30 min | IC50 (Ba/F3 LMNA-NTRK1-F589L): 0.78 nM | T/C ([4]; 3 mg/kg BID): 9.57% | TGI ([4]; 3 mg/kg BID): 118.02% | T/C ([4]; 15 mg/kg BID): 3.07% | TGI ([4]; 15 mg/kg BID): 126.88% | T/C ([4]; 30 mg/kg BID): 1.87% | TGI ([4]; 30 mg/kg BID): 128.36% | IC50 (BaF3 ETV6-NTRK3-G623R): 3.4 nM | IC50 [5]: 16.1 nM

— patent US20220289765A1, “CRYSTAL OF CARCINOGENIC FUSED KINASE INHIBITOR AND APPLICATIONS THEREOF” (Simcere Pharmaceutical Co., Ltd., priority 2019, published 2022)
